Results reported in patent publication US11802107B2, “Compounds and methods of use” (Signum Biosciences, Inc., priority 2017, dated 2023).
In brackets after ≈: the same amount, converted by molar mass. Structures can show the parent of a compound that is named as a salt. Where two headings read alike, the source gives them in different places. One block for each molecule: values may come before it.

Legend:
[1] = test system: P. acnes (ATCC 6919); assay: Minimal inhibitory concentration (MIC) against P. acnes; format: cell-based, Propionibacterium acnes; conditions: P. acnes ATCC 6919, 10^6 CFU/mL
Method: To determine minimal inhibitory concentration (MIC), reagents were dissolved in vehicle (5% v/v) and then added to bacteria suspension. P. acnes (ATCC® 6919TM) at 10^6 CFU/mL was incubated with test materials at the concentrations of two-fold serial dilution (0.25-500 μg/mL) and incubated for 72 hours (P. acnes).

[2] = test system: P. acnes (ATCC 6919); assay: Minimal bactericidal concentration (MBC) against P. acnes; format: cell-based, Propionibacterium acnes; conditions: Cutibacterium acnes, ATCC6919; P. acnes 10^7 CFU/mL, in PBS, anaerobic conditions
[3] = test system: IL-8; assay: P. acnes-induced IL-8 on human NHEKs; format: cell-based; conditions: NHEK, live P. acnes 10^7 CFU, 24 hours, ELISA, read-out: P. acnes-NHEK IL-8 Protein IC50
Method: Normal human epidermal keratinocytes (NHEKs) from neonatal donors were obtained from Thermo-Fisher (Cat No. C-001-5C). Cells were cultured in 96-well plates for 24 hours with EpiLife media (Cat No. MEPI500CA) supplemented with keratinocytes growth supplement (Cat No. S0015). On Day 2, media was removed and replaced with supplement-depleted medium for 24 hours. On Day 3, media was removed and cells were pre-treated with test materials ([…]) for 2 hours and later co-treated with test materials and live P. acnes (ATCC® 6919TM) at 10^7 CFU for 24 hours at 37° C. and 5% CO2. After incubation, cell media supernatants were harvested and used to measure pro-inflammatory cytokine levels (IL-8) using ELISA kits (BD Biosciences® #555244). Results were represented as percent of inhibition relative to untreated and P. acnes-only treated cells. IC50 values were determined by non-linear regression analysis using the four-parameter logistic equation.

[4] = test system: Balb/C mice; assay: Oxazolone-induced delayed-type hypersensitivity (DTH) in vivo model; conditions: Mus musculus, topical to ears @ 3% w/v, 24 hours, read-out: Edema % inhibition
Method: Inbred male Balb/C mice were purchased from Hilltop Lab Animals (Scottdale, PA) and were used between 8 and 10 weeks of age. Mice backs were shaved and 100 μl of 3% v/v Oxazolone (Sigma Aldrich, Cat No. E0753) in acetone/olive oil (4:1) was applied to dorsal skin for sensitization. On Day 7, ears were challenged with 0.5% v/v Oxazolone and 30 minutes after challenge, test materials at 3% w/v were applied to ears (10 μl applied both to the dorsal and ventral surfaces of the mouse ear using a solvent pipette) and 24 hours later, skin thickness (edema) was measured. A 6-mm punch biopsy was obtained from each ear, snap frozen in liquid nitrogen. Ear skin biopsy punches were pulverized using FastPrep®-24 Biopulverizer (MP Biomedical, CatNo. 116004500) and Lysing Matrix A tubes (CatNo. 16910050). Protein extracts were obtained using 500 μL/tissue of cold T-PER buffer (ThermoFisher, CatNo. 78510) with Protease inhibitors (Sigma-Aldich, CatNo. 58820-20TAB). Soluble protein fractions were used to measure cytokine levels (IL-4) using ELISA kit (BD Biosciences® #555232). Results were represented as percent of inhibition relative to unsensitized and sensitized-only treated animals. Vehicle for presently disclosed compounds was 60:40 H2O:EtOH and 1:1 Acetone:EtOH for AN2718. (n=5-15 animals per treatment group).
Compound C was further analyzed at various dosages against 0.4 mg/ear of […] by the above protocol, data representing the average±S.E. of cumulative data from three independent experiments (n=12-15 mice per group) is shown below: […]

[5] = Cutibacterium acnes, ATCC6919, 72 h, read-out: MIC

Compound: CC(C)=CCC/C(C)=C/CC/C(C)=C/CSCC(NC(=O)N1CCCC1C(=O)O)C(=O)O (centres unmarked) [AD]
- MIC [1, 5]: > 125 µg/mL

Compound: CC(C)=CCC/C(C)=C/CC/C(C)=C/CSCC(NC(=O)N(CC(=O)O)CC(=O)O)C(=O)O (centres unmarked) [AF]
- MIC [1, 5]: > 125 µg/mL

Compound: CC(C)=CCC/C(C)=C/CC/C(C)=C/CSCC(NC(=O)COCC(=O)O)C(=O)O (centres unmarked) [AQ]
- MIC [1, 5]: > 125 µg/mL

Compound: C/C(=C\CSCC(NC(=O)N1CCCCC1C(=O)O)C(=O)O)CCCC(C)CCCC(C)CCCC(C)C (centres unmarked) [AW]
- MIC [1, 5]: > 125 µg/mL

Compound: CSCC(NC(=O)N(CC(=O)O)CC(=O)O)C(=O)O (centres unmarked) [AX]
- MIC [1, 5]: > 125 µg/mL

Compound: O=C(O)CN(CC(=O)O)C(=O)NC12CC3CC(CC(C3)C1)C2 [AY]
- MIC [1, 5]: > 125 µg/mL

Compound: C/C(=C\CSC[C@H](NC(=O)N1CCC1C(=O)O)C(=O)O)CCCC(C)CCCC(C)CCCC(C)C (some centres unmarked) [AZ]
- MIC [1, 5]: 63 µg/mL (≈ 120 µM)

Compound: C/C(=C\CSc1ccc(C(=O)O)cn1)CCCC(C)CCCC(C)CCCC(C)C (centres unmarked) [BA]
- MIC [1, 5]: > 125 µg/mL

Compound: C/C(=C\CSCC(NC(=O)N1CCCCC1)C(=O)O)CCCC(C)CCCC(C)CCCC(C)C (centres unmarked) [BD]
- MIC [1, 5]: > 125 µg/mL

Compound: C/C(=C\CSCC(Nc1ncccn1)C(=O)O)CCCC(C)CCCC(C)CCCC(C)C (centres unmarked) [BF]
- MIC [1, 5]: > 125 µg/mL

Compound: C/C(=C\CSC(C)(C)C(NC(=O)CCC(=O)O)C(=O)O)CCCC(C)CCCC(C)CCCC(C)C (centres unmarked) [BO]
- MIC [1, 5]: 125 µg/mL (≈ 237 µM)

Compound: C/C(=C\CSC(C)(C)C(Nc1ncc(C(=O)O)cn1)C(=O)O)CCCC(C)CCCC(C)CCCC(C)C (centres unmarked) [BP]
- MIC [1, 5]: > 125 µg/mL

Compound: C[C@H]1C[C@H]2[C@@H]3CCC4=CC(=O)C=C[C@]4(C)[C@@]3(F)[C@@H](O)C[C@]2(C)[C@@]1(O)C(=O)CCl [Clobetasol, reference compound]
- IC50 [3]: 33 nM

Compound: CC(=O)NC(C(=O)NC(CSC/C=C(\C)CCCC(C)CCCC(C)CCCC(C)C)C(=O)O)C(C)CO (centres unmarked) [K]
- MIC [1, 5]: > 250 µg/mL

Compound: CSCCC(NC(C)=O)C(=O)NC(CSC/C=C(\C)CCCC(C)CCCC(C)CCCC(C)C)C(=O)O (centres unmarked) [L]
- MIC ([1]; 72 hours): >16 µg/mL

Compound: CC(=O)NC(C(=O)NC(CSC/C=C(\C)CCCC(C)CCCC(C)CCCC(C)C)C(=O)O)C(C)O (centres unmarked) [N]
- MIC [1, 5]: > 250 µg/mL

Compound: CC(=O)NC(COC(C)(C)C)C(=O)NC(CSC/C=C(\C)CCCC(C)CCCC(C)CCCC(C)C)C(=O)O (centres unmarked) [R]
- MIC [1, 5]: > 25 µg/mL
- inhibition in vivo at 3 % strength [4]: 24%

Compound: C/C(=C\CSCC(N/C(=N/C#N)N(C)CC(=O)O)C(=O)O)CCCC(C)CCCC(C)CCCC(C)C (centres unmarked) [W]
- MIC [1, 5]: 62 µg/mL (≈ 115 µM)
- inhibition in vivo at 3 % strength [4]: 22%

Compound: C/C(=C\CSCC(NC(=O)c1ccc(C(=O)O)cc1)C(=O)O)CCCC(C)CCCC(C)CCCC(C)C (centres unmarked) [X]
- MIC [1, 5]: > 25 µg/mL
- inhibition in vivo at 3 % strength [4]: 15%

More lines, main results first:

- MIC [1, 5]: 31 µg/mL (≈ 49 µM)
Compound: C/C(=C\CSC[C@H](NC(=O)Nc1ncc(C(=O)O)c(C(F)(F)F)n1)C(=O)O)CCCC(C)CCCC(C)CCCC(C)C (some centres unmarked) [BB]

- MIC [1, 5]: 12 µg/mL (≈ 21.6 µM)
Compound: C/C(=C\CSCC(NC(=O)N1CC(O)CC1C(=O)O)C(=O)O)CCCC(C)CCCC(C)CCCC(C)C (centres unmarked) [BC]

- MIC [1, 5]: 23 µg/mL (≈ 41.5 µM)
Compound: C/C(=C\CSCC(NC(=O)N1CCCC(C(=O)O)C1)C(=O)O)CCCC(C)CCCC(C)CCCC(C)C (centres unmarked) [BE]

- MIC [1, 5]: 42 µg/mL (≈ 80.5 µM)
Compound: C/C(=C\CSCC(Nc1nccc(C(=O)O)n1)C(=O)O)CCCC(C)CCCC(C)CCCC(C)C (centres unmarked) [BG]

- MIC [1, 5]: 4 µg/mL (≈ 7.67 µM)
Compound: C/C(=C\CSCC(Nc1ncc(C(=O)O)cn1)C(=O)O)CCCC(C)CCCC(C)CCCC(C)C (centres unmarked) [BH]
- MBC [2]: 16 µg/mL (≈ 30.7 µM)

- MIC [1, 5]: 23 µg/mL (≈ 42.7 µM)
Compound: C/C(=C\CSC[C@H](NC(=O)N(CC#N)CC(N)=O)C(=O)O)CCCC(C)CCCC(C)CCCC(C)C (some centres unmarked) [BJ]

- MIC [1, 5]: 31 µg/mL (≈ 59.4 µM)
Compound: C/C(=C\CSC[C@H](Nc1cnc(C(=O)O)cn1)C(=O)O)CCCC(C)CCCC(C)CCCC(C)C (some centres unmarked) [BK]

- MIC [1, 5]: 7 µg/mL (≈ 13.1 µM)
Compound: C/C(=C\CSC[C@H](Nc1ncc(C(=O)O)c(C)n1)C(=O)O)CCCC(C)CCCC(C)CCCC(C)C (some centres unmarked) [BL]
- MBC [2]: > 62 µg/mL

- MIC [1, 5]: 6 µg/mL (≈ 10.6 µM)
Compound: C/C(=C\CSCC(Nc1ccnc(N(C)CC(=O)O)n1)C(=O)O)CCCC(C)CCCC(C)CCCC(C)C (centres unmarked) [BM]
- MBC [2]: > 62 µg/mL

- MIC [1, 5]: 8 µg/mL (≈ 14.2 µM)
Compound: C/C(=C\CSCC(Nc1nccc(N(C)CC(=O)O)n1)C(=O)O)CCCC(C)CCCC(C)CCCC(C)C (centres unmarked) [BN]
- MBC [2]: 31 µg/mL (≈ 54.9 µM)

- MIC [1, 5]: 0.06 µg/mL
Compound: CCC[C@@H]1C[C@@H](C(=O)N[C@@H]([C@H]2O[C@H](SC)[C@H](O)[C@@H](O)[C@H]2O)[C@H](C)Cl)N(C)C1 [Clindamycin HCl, reference compound]

- MIC [1, 5]: 12 µg/mL (≈ 23.3 µM)
Compound: C/C(=C/CSC[C@H](NC(=O)N(C)CC(=O)O)C(=O)O)CCCC(C)CCCC(C)CCCC(C)C (stereo partly drawn) [Compound BI, (2R)-2-{[(carboxymethyl)(methyl)carbamoyl]amino}-3-{[(2Z)-3,7,11,15-tetramethylhexadec-2-en-1-yl]sulfanyl}propanoic acid]

- MIC [1, 5]: < 0.2 µg/mL
Compound: C[C@H]1c2cccc(O)c2C(=O)C2=C(O)[C@]3(O)C(=O)C(C(N)=O)=C(O)[C@@H](N(C)C)[C@@H]3[C@@H](O)[C@@H]21 [Doxycycline, reference compound]

- MIC [1, 5]: 6 µg/mL (≈ 12 µM)
- IC50 ([3]; Homo sapiens): 1690 nM
Compound: C/C(=C\CSCC(NC(=O)CCC(N)=O)C(=O)O)CCCC(C)CCCC(C)CCCC(C)C (centres unmarked) [F]

- MIC [1, 5]: 6 µg/mL (≈ 10.6 µM)
- IC50 ([3]; Homo sapiens): 20 nM
Compound: C/C(=C\CSCC(NC(=O)c1ccc(O)c(C(=O)O)c1)C(=O)O)CCCC(C)CCCC(C)CCCC(C)C (centres unmarked) [H]
- inhibition in vivo at 3 % strength [4]: 14%

- MIC [1, 5]: 32 µg/mL (≈ 57.5 µM)
Compound: CC(=O)N[C@@H](CC(=O)O)C(=O)NC(CSC/C=C(\C)CCCC(C)CCCC(C)CCCC(C)C)C(=O)O (some centres unmarked) [J]
- inhibition in vivo at 3 % strength [4]: 10%

- MIC [1, 5]: 16 µg/mL (≈ 28.8 µM)
Compound: CC(=O)NC(CC(C)C)C(=O)NC(CSC/C=C(\C)CCCC(C)CCCC(C)CCCC(C)C)C(=O)O (centres unmarked) [M]

- MIC [1, 5]: 32 µg/mL (≈ 54.3 µM)
Compound: CC(=O)NC(Cc1ccccc1)C(=O)NC(CSC/C=C(\C)CCCC(C)CCCC(C)CCCC(C)C)C(=O)O (centres unmarked) [O]

- MIC [1, 5]: 10 µg/mL (≈ 18 µM)
Compound: CC(=O)NC(CC(N)=O)C(=O)NC(CSC/C=C(\C)CCCC(C)CCCC(C)CCCC(C)C)C(=O)O (centres unmarked) [P]

- MIC [1, 5]: 19 µg/mL (≈ 33.1 µM)
Compound: C/C(=C\CSCC(NC(=O)C(O)(CC(=O)O)CC(=O)O)C(=O)O)CCCC(C)CCCC(C)CCCC(C)C (centres unmarked) [U]
- inhibition in vivo at 3 % strength [4]: 18%

- MIC [1, 5]: 50 µg/mL (≈ 90.1 µM)
Compound: C/C(=C\CSCC(NC(=O)N1CCC(C(=O)O)CC1)C(=O)O)CCCC(C)CCCC(C)CCCC(C)C (centres unmarked) [Y]
- inhibition in vivo at 3 % strength [4]: 0%
